The target in experiment [1] is T1, Polyadenylate-binding protein 1 (Homo sapiens, UniProt P11940). Description: MLLE domain peptide-binding blockers, IC50 – biochemical, fluorescence polarization, FITC-PAM2 peptide, dose response (AID 602259). The format is functional. To be noted: read-out: IC50_Mean.
The target in experiment [2] is T1, Polyadenylate-binding protein 1. Nature of the experiment: MLLE binding blockers, Cy5 peptide tracer – biochemical, fluorescence polarization, Cy5-PAM2 peptide, secondary, miRNA deadenylation inhibitor project, dose response (AID 602260). The note with it: read-out: IC50_Mean. The format is functional.
The next experiment deals with P388/ADR. Description: cells. The experiment is classed as functional. To be noted: Mus musculus.
The subject of a further experiment is P388. Description: cells. The format is functional. To be noted: Mus musculus.
Another experiment concerns SN12K1. Description: cells. The experiment is classed as functional. To be noted: Homo sapiens.
A short description of experiment [3]: HIV-1 AD8 envelope cell-cell fusion blockers – cherry-pick, dose response (AID 652062).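 Note: luciferase signal from cell-cell fusion driven by HIV-1 clade B AD8 Env; potency is for inhibitors of fusion seen as a drop in luminescence.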 The format is functional, cell-based.
The nature of experiment [4]: blockers of HIV-1 ZM109 envelope-driven cell-cell fusion – HeLa effector, CEM target cells, luciferase, cherry-pick, dose response (AID 652058).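 Note: luciferase signal from HIV-1 Env mediated cell-cell fusion of effector and target cells.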 The experiment is classed as functional, cell-based.
The nature of experiment [5]: off-target signal loss in HeLa-CEM21 co-culture – HeLa F-luc CTL cells, cherry-picked, counter-screen for HIV-1 Env fusion inhibitor project, dose response (AID 652040).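 Note: potency for signal decrease marking cytotoxic or nonspecific inhibition.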 The experiment is classed as functional, cell-based.
Experiment [6] is described as follows: blockers of HIV-1 envelope-mediated cell-cell fusion – cherry-pick, dose response (AID 652057). The format is functional, cell-based.
In experiment [7] the target is T2, High affinity choline transporter 1 (Homo sapiens, UniProt Q9GZV3).
T2 sequence (Q9GZV3 whole entry): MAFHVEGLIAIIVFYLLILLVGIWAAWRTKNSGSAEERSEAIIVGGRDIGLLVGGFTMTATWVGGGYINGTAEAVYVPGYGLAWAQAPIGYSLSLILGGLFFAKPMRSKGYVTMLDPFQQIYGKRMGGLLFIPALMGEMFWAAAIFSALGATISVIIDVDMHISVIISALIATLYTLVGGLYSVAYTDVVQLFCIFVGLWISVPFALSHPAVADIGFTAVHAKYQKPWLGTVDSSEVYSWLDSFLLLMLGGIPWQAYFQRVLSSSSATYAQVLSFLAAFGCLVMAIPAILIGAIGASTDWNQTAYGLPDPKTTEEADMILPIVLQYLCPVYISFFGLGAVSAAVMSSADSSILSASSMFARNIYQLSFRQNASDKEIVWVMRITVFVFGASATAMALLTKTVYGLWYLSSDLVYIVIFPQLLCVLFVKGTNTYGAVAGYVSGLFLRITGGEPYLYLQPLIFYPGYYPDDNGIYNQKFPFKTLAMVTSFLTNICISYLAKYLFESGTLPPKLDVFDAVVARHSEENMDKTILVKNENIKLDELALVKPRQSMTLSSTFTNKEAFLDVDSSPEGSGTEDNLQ
Nature of the experiment: human choline transporter blockers, potency – cell-based, 5-point CRC, membrane potential dye, dose response (AID 504840). The experiment is classed as functional.

Experiment [8] addresses Induced myeloid leukemia cell differentiation protein Mcl-1 (Homo sapiens, UniProt Q07820). The experiment is classed as functional.
Experiment [9] concerns the target T3, Carboxy-terminal domain RNA polymerase II polypeptide A small phosphatase 1 (Homo sapiens, UniProt Q9GZU7).
T3 sequence (Q9GZU7 whole entry): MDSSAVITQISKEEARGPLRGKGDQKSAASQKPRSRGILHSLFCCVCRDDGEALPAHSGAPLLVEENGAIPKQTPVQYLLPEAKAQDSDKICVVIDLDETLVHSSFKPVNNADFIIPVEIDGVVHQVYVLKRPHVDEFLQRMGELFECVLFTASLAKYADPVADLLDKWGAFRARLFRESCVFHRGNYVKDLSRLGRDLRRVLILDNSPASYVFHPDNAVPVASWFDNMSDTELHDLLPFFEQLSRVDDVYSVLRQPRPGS
Description: CTDSP1 inhibitors, concentration-response, biochemical, absorbance readout, ultra-high-throughput screen actives (AID 540297). The experiment is classed as functional.

The target of experiment [10] is T4, Histone-lysine N-methyltransferase NSD2 (Homo sapiens, UniProt O96028).
T4 sequence (O96028 whole entry): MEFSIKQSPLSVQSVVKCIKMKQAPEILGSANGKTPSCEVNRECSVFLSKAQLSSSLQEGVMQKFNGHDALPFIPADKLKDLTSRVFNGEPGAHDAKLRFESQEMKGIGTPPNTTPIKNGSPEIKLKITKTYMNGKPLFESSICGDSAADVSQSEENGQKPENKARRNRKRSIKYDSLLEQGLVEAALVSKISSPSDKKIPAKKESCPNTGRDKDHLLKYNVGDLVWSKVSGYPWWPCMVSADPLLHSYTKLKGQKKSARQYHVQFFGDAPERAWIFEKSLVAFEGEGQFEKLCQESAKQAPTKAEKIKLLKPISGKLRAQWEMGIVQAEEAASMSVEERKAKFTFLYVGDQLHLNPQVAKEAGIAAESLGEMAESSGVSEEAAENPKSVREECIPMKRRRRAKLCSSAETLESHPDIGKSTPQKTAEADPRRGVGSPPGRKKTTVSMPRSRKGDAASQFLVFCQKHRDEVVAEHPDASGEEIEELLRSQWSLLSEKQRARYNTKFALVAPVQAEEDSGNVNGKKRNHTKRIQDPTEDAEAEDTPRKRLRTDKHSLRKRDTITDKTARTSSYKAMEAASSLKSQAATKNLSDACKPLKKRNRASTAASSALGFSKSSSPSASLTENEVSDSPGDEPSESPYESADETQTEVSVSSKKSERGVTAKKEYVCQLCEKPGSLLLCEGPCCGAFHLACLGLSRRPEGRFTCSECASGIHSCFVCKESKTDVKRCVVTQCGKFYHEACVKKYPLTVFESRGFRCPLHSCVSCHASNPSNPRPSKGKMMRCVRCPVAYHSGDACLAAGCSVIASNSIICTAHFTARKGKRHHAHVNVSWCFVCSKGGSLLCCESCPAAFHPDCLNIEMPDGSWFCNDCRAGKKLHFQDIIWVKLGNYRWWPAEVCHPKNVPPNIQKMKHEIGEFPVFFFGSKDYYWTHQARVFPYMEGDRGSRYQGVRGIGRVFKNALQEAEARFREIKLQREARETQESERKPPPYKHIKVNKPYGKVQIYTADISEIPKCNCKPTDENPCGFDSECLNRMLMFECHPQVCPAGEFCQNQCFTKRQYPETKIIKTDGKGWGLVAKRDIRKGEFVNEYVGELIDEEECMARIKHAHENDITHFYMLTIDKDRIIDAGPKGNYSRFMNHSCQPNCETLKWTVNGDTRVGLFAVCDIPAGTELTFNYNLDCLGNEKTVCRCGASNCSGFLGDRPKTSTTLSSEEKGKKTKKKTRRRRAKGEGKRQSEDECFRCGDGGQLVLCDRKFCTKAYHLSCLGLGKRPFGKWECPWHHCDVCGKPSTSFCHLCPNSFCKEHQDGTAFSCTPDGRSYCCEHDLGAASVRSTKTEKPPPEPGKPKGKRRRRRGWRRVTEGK
The format is biochemical.

The source made the active and inactive calls. Bounds are passed on as bounds.

T1 sequence (P11940 whole entry, the tested form may be a part): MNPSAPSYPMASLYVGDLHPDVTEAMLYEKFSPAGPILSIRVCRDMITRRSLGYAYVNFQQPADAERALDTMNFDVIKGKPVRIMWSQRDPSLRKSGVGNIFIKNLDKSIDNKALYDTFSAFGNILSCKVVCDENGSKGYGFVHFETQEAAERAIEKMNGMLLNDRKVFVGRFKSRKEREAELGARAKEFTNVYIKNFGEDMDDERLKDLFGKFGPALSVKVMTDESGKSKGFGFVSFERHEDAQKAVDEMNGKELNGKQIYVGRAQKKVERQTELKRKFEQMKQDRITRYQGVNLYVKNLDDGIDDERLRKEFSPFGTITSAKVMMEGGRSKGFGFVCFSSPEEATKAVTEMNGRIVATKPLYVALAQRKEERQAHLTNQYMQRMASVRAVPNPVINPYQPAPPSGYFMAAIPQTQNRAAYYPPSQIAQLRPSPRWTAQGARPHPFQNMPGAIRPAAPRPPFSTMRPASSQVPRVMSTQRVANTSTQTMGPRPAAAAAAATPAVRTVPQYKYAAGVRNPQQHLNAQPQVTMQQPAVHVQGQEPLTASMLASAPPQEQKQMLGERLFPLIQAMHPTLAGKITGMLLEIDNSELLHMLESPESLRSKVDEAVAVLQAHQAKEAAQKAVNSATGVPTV
Sequence of Induced myeloid leukemia cell differentiation protein Mcl-1 (Q07820 whole entry, the tested form may be a part): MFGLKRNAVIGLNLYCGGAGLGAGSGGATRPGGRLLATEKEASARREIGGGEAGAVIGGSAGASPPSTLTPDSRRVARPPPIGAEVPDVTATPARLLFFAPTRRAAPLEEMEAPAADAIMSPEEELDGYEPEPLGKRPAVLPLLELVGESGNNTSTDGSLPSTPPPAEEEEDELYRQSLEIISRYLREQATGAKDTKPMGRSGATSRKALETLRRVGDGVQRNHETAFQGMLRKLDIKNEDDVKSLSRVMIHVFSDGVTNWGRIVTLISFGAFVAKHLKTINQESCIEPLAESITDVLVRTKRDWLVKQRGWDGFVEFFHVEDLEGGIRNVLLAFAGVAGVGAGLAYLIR

`CCOP(=O)(Cc1cc(C(C)=O)c(C)o1)OCC`: the IC50 in experiment [1] and in experiment [2] was > 66 µM (inactive) each time.
As for `CCCNC(=O)C(C)C1CCC2(C)C=CC(=O)C(C)=C2C1O` (stereo unspecified), the GI50 with P388/ADR, in the experiment on P388 and with SN12K1 was > 100 µM (inactive) throughout.
On to `[N-]=[N+]=CC(=O)CCC(NC(=O)C(CCC(=O)C=[N+]=[N-])NC(=O)CCC(N)C(=O)O)C(=O)O` (stereo unspecified), for which the GI50 with P388/ADR, in the experiment on P388 and in the experiment with SN12K1 was > 100 µM (inactive) each time.
Turning to `CC(C)(C)N1C(=O)[C@H]2[C@@H](c3ccc(Br)cc3)N3C(=O)N(c4cccc(Cl)c4)C(=O)[C@@]3(C)[C@H]2C1=O`, the AC50 in experiment [3] is 3.2 µM (active); in experiment [4], 0.542 µM (active); in [5] it was 0.843 µM (active); in experiment [6] it was 0.464 µM (active).
`Cc1ccc(-c2cc(C(=O)NCCCn3ccnc3)c3cc(Br)ccc3n2)o1`: the IC50 is 11.5 µM (active) in experiment [7] and 3.07 µM (not active) in [8].
As for `CCCCNC(=O)c1sc(=S)n(-c2ccccc2OC)c1N`, the IC50 in [1] and in [2] was > 66 µM (inactive) throughout.
Regarding `NC(Cc1cc(I)c(O)c(I)c1)C(=O)O` (stereo unspecified), the GI50 in the experiment with P388/ADR is 21.3 µM (inactive); in the experiment with P388, 21.6 µM (inactive); in the experiment with SN12K1 it was 169 µM (inactive).
`Cn1c(O)nc2cc3ccccc3cc21`: the AC50 in experiment [3] was 4.99 µM (active); in experiment [4], 53.3 µM (active); in experiment [5], 0.717 µM (active); in experiment [6] it was 1.46 µM (active).
As for `CCNCCCCNCC`, the GI50 in the experiment with P388/ADR is > 3750 µM (inactive); with P388, 1560 µM (inactive); in the experiment on SN12K1 it was > 3750 µM (inactive).
As for `CC(=O)c1cccc(NC(=O)COc2cc3oc(=O)c(CC(C)O)c(C)c3cc2Cl)c1` (stereo unspecified), the IC50 in experiment [9] is 12.5 µM (active).
On to `CC1(C)N=C(N)N=C(N)N1c1ccc(CCCCc2ccc(S(=O)(=O)F)cc2Cl)c(Cl)c1`, for which the GI50 in the experiment on P388/ADR is 0.369 µM (active); in the experiment with P388, 0.05 µM (active); in the experiment on SN12K1, 0.979 µM (active).
As to `COc1ccc(C(=O)CCN2CCC(C)CC2)cc1`, the IC50 in experiment [1] and in [2] was > 66 µM (inactive) in each case.
Consider `C[C@H]1CN([C@@H](C)CO)C(=O)Cc2cc(NC(=O)Nc3ccccc3)ccc2O[C@H]1CN(C)S(=O)(=O)c1ccccc1`, for which the AC50 was 5.2 µM (active) in [3], 4.49 µM (active) in experiment [4] and 5.16 µM (active) in experiment [6].
Take `C[C@H]1COC(c2ccccn2)=N1`: the GI50 in the experiment on P388/ADR, with P388 and with SN12K1 was > 100 µM (inactive) throughout.
Turning to `NC(=O)c1[nH]nc(C2OC(CO)C(O)C2O)c1O` (stereo unspecified), the GI50 in the experiment on P388/ADR was 0.5 µM (active); in the experiment with P388, 0.5 µM (active); with SN12K1, 0.561 µM (active).
For `CC12CCC3C(CCC4=CC(O)CCC43C=O)C1(O)CCC2c1ccc(=O)oc1` (stereo unspecified), the 50% growth inhibitory concentration (GI50) is 0.21 µM (active) in the experiment with P388/ADR, < 0.1 µM (active) in the experiment on P388 and 0.05 µM (active) in the experiment on SN12K1.
Consider `CCN(CC)CCNC(=O)c1c(C)[nH]c(/C=C2\C(=O)Nc3ccc(F)cc32)c1C`, for which the AC50 in [10] is > 20 µM (inactive).
In the case of `CC[C@@]1(C(=O)OC)N[C@H](CN(C)C(=O)Nc2ccc(C(F)(F)F)cc2)[C@@H]2C(=O)N(Cc3ccccc3)C(=O)[C@@H]21`, the AC50 in experiment [3] was 1.21 µM (active); in experiment [4], 0.604 µM (active); in experiment [5], 0.74 µM (active); in [6], 0.336 µM (active).
`CCCCC1NC(C(=O)O)CS1` (stereo unspecified): the IC50 in experiment [1] and in [2] was > 66 µM (inactive) in each case.
Turning to `COc1ccc2nc3c(C(=O)NCCN(C)C)cccc3cc2c1`, the figures for the GI50 in the experiment with P388/ADR, in the experiment on P388 and with SN12K1 were 0.652 µM (active), 0.305 µM (active) and 0.944 µM (active), respectively.
Consider `CCn1c(C)cc(C)[n+]1-c1ccccc1`, for which, in experiment [9], the IC50 was 13.2 µM (active).
`CN(C)c1cccc2c(S(=O)(=O)Nc3ccccn3)cccc12`: the AC50 in [10] is 15.3 µM (active).
Turning to `CCOCC(=O)Nc1nnc(COc2ccc(Cl)cc2)s1`, the IC50 in experiment [1] and in experiment [2] was > 66 µM (inactive) throughout.
As for `CCN1C(=O)[C@H]2[C@H]3CN=C(SCc4ccc(Cl)cc4)N3[C@@](CC)(C(=O)OC)[C@H]2C1=O`, the AC50 in experiment [3] is 5.43 µM (active); in [4], 3.37 µM (active); in experiment [5], 3.59 µM (active); in experiment [6] it was 3.34 µM (active).
Turning to `N#C/C(=C/c1ccc(-c2ccc(C(=O)O)c(Cl)c2)o1)C(=O)NCC1CCCO1` (stereo unspecified), the IC50 in experiment [9] was 33.2 µM (active).
In the case of `CCCn1c(N)c(C(=S)NC(=O)C2CC2)c(=O)n(C)c1=O`, the IC50 in [1] and in experiment [2] was > 66 µM (inactive) throughout.
For `O=C(CCN1C(=O)/C(=C/c2ccc(F)cc2)SC1=S)Nc1cc([N+](=O)[O-])ccc1O`, in experiment [9], the IC50 is 7.68 µM (active).
